Measurements published in US20200230100A1, “AGONIST OF 67 KDA LAMININ RECEPTOR AND UTILIZATION THEREOF” (priority 2017, published 2020).

Key:
RPMI8226 = assay: Anti-cancer action: number of viable cells (ATPlite) after 96 hours of culture; format: cell-based; settings: RPMI8226 human multiple myeloma cell line
Protocol: (§1) Specifically, OHBFB was added to a medium of various cancer cell lines and the number of viable cells was measured. For comparison, the anti-cancer action of epigallocatechin gallate (hereinafter sometimes referred to as “EGCG”) was also studied similarly.
(§2) Examples of the cancer cell lines include U266 which is a human multiple myeloma cell line, ARH77 which is a human multiple myeloma cell line, RPMI8226 which is a human multiple myeloma cell line, Mec-1 which is a human chronic lymphocytic leukemia cell line, HL60 which is a human acute myeloid leukemia cell line, Kasumi-1 which is a human acute myeloid leukemia cell line, and KU812 which is human chronic myeloid leukemia cell line were used.
(§3) As each of the cancer cell lines, a cell line obtained by subculturing the cells under the conditions of 37° C. and 5% CO2 saturated with water vapor using an RPMI 1640 medium supplemented with a 10% fetal calf serum (FCS), and culturing and maintaining the cells in a logarithmic growth phase.
(§4) EGCG (manufactured by Sigma-Aldrich) was dissolved in ultrapure water to 5 mM, stored at −30° C., and appropriately thawed before use. OHBFB (manufactured by Nagara Bioscience) was dissolved in ultrapure water to 5 mM, stored at −30° C., and appropriately thawed before use.
(§5) Each of the cancer cell lines was suspended in an RPMI 1640 medium supplemented with a 1% FCS, superoxide dismutase (SOD) (5 U/mL), and a catalase (200 U/mL) to 5×10^4 cells/mL, the suspension was seeded at 100 μL/well in a 96-well plate, OHBFB or EGCG at a final concentration of 0, 5, 10, or 25 μM was added thereto, and the cells were cultured for 96 hours. Thereafter, the number of viable cells was measured using a commercially available kit (trade name “ATPlite,” PerkinElmer).

ARH77 = assay: as above; format: cell-based; settings: ARH77 human multiple myeloma cell line
Protocol: as §1, §2, §3, §4, §5

KU812 = assay: as above; format: cell-based; settings: KU812 human chronic myeloid leukemia cell line
Protocol: as §1, §2, §3, §4, §5

U266 [1] = assay: as above; format: cell-based; settings: U266 human multiple myeloma cell line
Protocol: as §1, §2, §3, §4, §5

Mec-1 = assay: as above; format: cell-based; settings: Mec-1 human chronic lymphocytic leukemia cell line
Protocol: as §1, §2, §3, §4, §5

HL60 = assay: as above; format: cell-based; settings: HL60 human acute myeloid leukemia cell line
Kasumi-1 = assay: as above; format: cell-based; settings: Kasumi-1 human acute myeloid leukemia cell line
U266 [2] = assay: Anti-cancer activity enhancing action by eriodictyol (ATPlite cell viability, isobologram analysis); format: cell-based, human
U266 [3] = assay: Anti-cancer activity enhancing action by flavanone (ATPlite cell viability); format: cell-based, human; settings: U266, flavanone 5 μM with OHBFB 2.5 μM, 96 hours
Protocol: Specifically, U266 which is a human multiple myeloma cell line was suspended in an RPMI 1640 medium supplemented with 1% FCS, SOD (5 U/mL), and a catalase (200 U/mL) to 5×10^4 cells/mL, and the suspension was seeded at 100 μL per well in a 96-well plate. […] As a control, a sample to which the same volume of PBS had been added instead of flavanone was used. As the flavanone, eriodictyol (manufactured by Extrasynthese Corp.), naringenin (manufactured by Tokyo Chemical Industry Co., Ltd.), and hesperetin (manufactured by Wako Pure Chemical Industries, Ltd.) were used. Subsequently, the cell viability was measured using a commercially available kit (trade name “ATPlite,” PerkinElmer).

U266 [4] = assay: Anti-cancer activity enhancing action by PDE5 inhibitor vardenafil (ATPlite cell viability, isobologram analysis); format: cell-based; settings: Homo sapiens, U-266, 96 h, read-out: IC50 of vardenafil alone
Protocol: Specifically, a human multiple myeloma cell line U266 was suspended in an RPMI 1640 medium supplemented with 1% FCS, SOD (5 U/mL), and a catalase (200 U/mL) to 5×10^4 cells/mL, and the suspension was seeded at 100 μL per well in a 96-well plate.
Subsequently, vardenafil (manufactured by Cayman Chemical Co.) which is a PDE5 inhibitor was added to a final concentration of 5 μM and the mixture was incubated for 3 hours. […] Thereafter, the cell viability was measured using a commercially available kit (trade name “ATPlite,” PerkinElmer).
In addition, the same studies as described above were performed in the presence of vardenafil alone at final concentrations of 0, 5, 10, 25, 50, and 100 μM.

O=C(O[C@@H]1Cc2c(O)cc(O)cc2O[C@@H]1c1cc(O)c(O)c(O)c1)c1cc(O)c(O)c(O)c1 [EGCG, epigallocatechin gallate]
IC50 (RPMI8226): 11.1 µM | IC50 (ARH77): 4 µM | IC50 (KU812): 6.2 µM | IC50 (U266 [1]): 11.8 µM | IC50 (Mec-1): 8.3 µM | IC50 (HL60): 9.5 µM | IC50 (Kasumi-1): 9.6 µM

O=C1C[C@@H](c2ccc(O)c(O)c2)Oc2cc(O)cc(O)c21 [eriodictyol]
IC50 (U266 [2]; Homo sapiens, U-266, 96 h, read-out: IC50 of eriodictyol alone): 89.4 µM | combined use of OHBFB and eriodictyol (isobologram analysis) (U266 [2]; U266, isobologram): synergistically enhances the anti-cancer activity of OHBFB | cell viability: enhancement of OHBFB anti-cancer activity by flavanone (U266 [3]): enhance the anti-cancer activity of OHBFB

COc1ccc([C@@H]2CC(=O)c3c(O)cc(O)cc3O2)cc1O [hesperetin]
cell viability: enhancement of OHBFB anti-cancer activity by flavanone (U266 [3]): enhance the anti-cancer activity of OHBFB

O=C1C[C@@H](c2ccc(O)cc2)Oc2cc(O)cc(O)c21 [naringenin]
cell viability: enhancement of OHBFB anti-cancer activity by flavanone (U266 [3]): enhance the anti-cancer activity of OHBFB

CCCc1nc(C)c2c(=O)[nH]c(-c3cc(S(=O)(=O)N4CCN(CC)CC4)ccc3OCC)nn12 [vardenafil]
IC50 (U266 [4]): 92.7 µM
